# Tested on: infiltrating OPN+CD45high cells
# Experiment: OPN+CD45high infiltrating cell count in ADtg mouse brain
# Assay type: in vivo
# Details: cell count per section, vs PBS controls (FIG. 13F)
# Experimental: ADtg mice (10 months old) received subcutaneous injections of GA [also known as Cop-1 and Copaxone®; 100 μg in phosphate-buffered saline (PBS)] or PBS alone (control group) twice a week for 1 week and then once a week for 8 weeks. For evaluation of innate immune infiltration to the brain by flow cytometry, 10-month-old ADtg mice received subcutaneous injections of GA (100 mg in PBS) or PBS alone twice a week for 1 week and then once a week for 3 weeks. At the end of the study, all mice were anaesthetized and then perfused with ice-cold PBS with 0.5 mM EDTA, after which their organs were collected and analyzed or fixed in 2.5% paraformaldehyde (Sigma-Aldrich), and cryoprotected with 30% sucrose for further histological analysis.
# CD115^+ monocytes from mice donors were isolated as previously reported (Koronyo et al., Brain: a journal of neurology 2015,138:2399-2422). In brief, bone marrow cells were harvested from the femora, tibiae, and humeri and enriched for mononuclear cells on a Ficoll-Paque® PLUS (17-1440-03, GE Healthcare) density gradient. […]
# The number and area (μm^2) of OPN+ cells, Iba1^+CD45^hi cells, GFAP^+ cells, Thio-S^+ amyloid-βplaques and 4G8^+ amyloid-βplaques were determined by examining four to six coronal sections per mouse at 150-μm intervals over an area covering both the hippocampal and cortical (including entorhinal and cingulate cortex) regions. […]
substance,measurement,value
glatiramer acetate [GA],increase in number of infiltrating OPN+CD45high cells,1.5 fold
